Among the test systems are A549 NSCLC; DU-145 prostate; HOP-92 NSCLC; MCF7 breast; OVCAR-5 ovarian; PC-3 prostate; RPMI-8226 leukemia; SK-MEL-2 melanoma; SW-620 colon; NCI-H522 lung.
Assay in all cases: NCI-60 cell line screen, 48 h

Data on 12 molecules can be found in PubChem BioAssay (NCI).

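Five concentrations, 48 hours, 96-well plates. GI50 is the concentration that inhibits growth by half. TGI denotes the concentration required for complete inhibition of growth.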

For `COc1cc(C(=O)N(C(=O)N2CCCCC2)c2ccccc2)cc(OC)c1OC`, the TGI in the test with A549 NSCLC, in the test on DU-145 prostate, with HOP-92 NSCLC, with MCF7 breast, in the test with OVCAR-5 ovarian and with PC-3 prostate was > 100 µM throughout. The TGI in the test on RPMI-8226 leukemia, with SK-MEL-2 melanoma and in the test on SW-620 colon was > 100 µM in each case.
Take `O=C(CBr)NCCc1c[nH]c2ccccc12`: the TGI came to 4.19 µM with DU-145 prostate; 4.88 µM with HOP-92 NSCLC; 4.72 µM in the test on MCF7 breast; 0.458 µM in the test with NCI-H522 lung; 3.47 µM with OVCAR-5 ovarian; 4.03 µM in the test with PC-3 prostate. Besides, the TGI in the test with RPMI-8226 leukemia came to 4.31 µM; in the test on SK-MEL-2 melanoma it was 4.16 µM; in the test on SW-620 colon, 7.71 µM.
In the case of `Cc1ccc(Cc2n[nH]c(=O)n2N2C(=O)c3ccccc3C2=O)cc1`, the TGI with A549 NSCLC, with DU-145 prostate, with HOP-92 NSCLC, with MCF7 breast, in the test with OVCAR-5 ovarian and with PC-3 prostate was > 100 µM throughout. In addition, the TGI with SK-MEL-2 melanoma and with SW-620 colon was > 100 µM throughout.
Regarding `CC(=O)CC12NC(=O)N(C)N=C1N(C)C(=O)N(C)C2=O` (centres undefined), the TGI in the test on A549 NSCLC, in the test on DU-145 prostate, in the test on HOP-92 NSCLC, in the test with MCF7 breast, with NCI-H522 lung and in the test with OVCAR-5 ovarian was > 100 µM in each case. Further, the TGI in the test with PC-3 prostate, with RPMI-8226 leukemia and in the test on SW-620 colon was > 100 µM throughout.
Turning to `CC(C)(/C=N/O)/[N+]([O-])=C/c1ccccc1`, the TGI in the test with A549 NSCLC, with DU-145 prostate, with HOP-92 NSCLC, in the test with MCF7 breast, in the test with OVCAR-5 ovarian and in the test on PC-3 prostate was > 100 µM in each case. Also, the TGI in the test with RPMI-8226 leukemia, with SK-MEL-2 melanoma and with SW-620 colon was > 100 µM each time.
On to `O=C1CCc2ccccc2O1`, for which the TGI in the test with DU-145 prostate, in the test on HOP-92 NSCLC, in the test on MCF7 breast, in the test with NCI-H522 lung, with OVCAR-5 ovarian and in the test on PC-3 prostate was > 100 µM throughout. Besides, the TGI in the test with RPMI-8226 leukemia, in the test with SK-MEL-2 melanoma and in the test with SW-620 colon was > 100 µM throughout.
For `COc1cc2c(cc1OC)-c1[nH]c3ccc([N+](=O)[O-])cc3c1CC(=O)N2`, the TGI with A549 NSCLC was > 100 µM; with DU-145 prostate, > 100 µM; in the test on HOP-92 NSCLC it was > 100 µM; with MCF7 breast, 34.9 µM; in the test on OVCAR-5 ovarian it was > 83.2 µM; in the test on PC-3 prostate it was 99.4 µM. Also, the TGI was 47.8 µM with RPMI-8226 leukemia, > 52.3 µM in the test on SK-MEL-2 melanoma and > 100 µM with SW-620 colon.
Take `CC(=O)OC12OC(C)(C3C(=O)N(c4ccccc4)C(=O)C31)N(c1ccccc1)C2=O` (centres undefined): the TGI in the test on A549 NSCLC, with DU-145 prostate, in the test on HOP-92 NSCLC, with MCF7 breast, in the test with NCI-H522 lung and in the test on OVCAR-5 ovarian was > 100 µM each time. The TGI with PC-3 prostate, in the test with SK-MEL-2 melanoma and with SW-620 colon was > 100 µM throughout.
Take `CN(C)C=Nc1c2c(nc3ccccc13)CCCC2`: the TGI in the test with A549 NSCLC, in the test with DU-145 prostate, in the test on HOP-92 NSCLC, with MCF7 breast, in the test on NCI-H522 lung and in the test with OVCAR-5 ovarian was > 100 µM in each case. Also, the TGI with PC-3 prostate, with RPMI-8226 leukemia and in the test with SK-MEL-2 melanoma was > 100 µM each time.
On to `CCC1OC2C(CC=C(C)C)=C3OC(C)(O)C(C)(CC)C(=O)C3=C3OC(=O)C=C1C32` (centres undefined), for which the TGI was > 100 µM with A549 NSCLC; > 100 µM in the test with DU-145 prostate; 71.2 µM in the test on HOP-92 NSCLC; > 100 µM with MCF7 breast; > 100 µM with OVCAR-5 ovarian; > 100 µM in the test with PC-3 prostate. Further, the TGI was > 100 µM in the test on RPMI-8226 leukemia, 36.1 µM in the test with SK-MEL-2 melanoma and > 100 µM with SW-620 colon.
Turning to `COc1cc(/C=C/c2ccc(S(N)(=O)=O)cc2)cc(OC)c1`, the GI50 was 20.7 µM in the test on A549 NSCLC, 15 µM in the test with HOP-92 NSCLC and 14.3 µM in the test on RPMI-8226 leukemia. Moreover, the TGI in the test on A549 NSCLC was 71.9 µM; in the test with DU-145 prostate, 72.8 µM; in the test with HOP-92 NSCLC, 43.9 µM; with MCF7 breast, 75.1 µM; in the test with OVCAR-5 ovarian it was > 100 µM; in the test on PC-3 prostate, 56.1 µM. The TGI in the test with RPMI-8226 leukemia was 31.5 µM; in the test on SK-MEL-2 melanoma, 40.3 µM.
Consider `O=C(NCCCc1cn[nH]c(=O)n1)c1cccc2nc3ccccc3nc12`, for which the TGI in the test on A549 NSCLC, in the test on DU-145 prostate, with HOP-92 NSCLC, in the test on MCF7 breast, with OVCAR-5 ovarian and in the test with PC-3 prostate was > 100 µM in each case. Also, the TGI in the test on RPMI-8226 leukemia, in the test with SK-MEL-2 melanoma and in the test with SW-620 colon was > 100 µM in each case.
